Data on six compounds can be found in ChEMBL document CHEMBL5357002, “Heterodimers of Aromadendrane Sesquiterpenoid with Benzoquinone from the Chinese Liverwort Mylia nuda” (J Nat Prod, 2024).

The source made the active and inactive calls. The calls are words filed in the database; no cut-off is given here.

In data set [1] the test system is SH-SY5Y. The data set is described as follows: Cytoprotective activity against glutamic acid induced injury in human SH-SY5Y cells assessed as increase in cell viability at 10 to 20 uM by MTT assay. Format: functional, cell-based. The note with it: dose 10-20 µM.
For data set [2], the system named is SH-SY5Y. The data set is described as follows: Cytoprotective activity against glutamic acid induced injury in human SH-SY5Y cells assessed as decrease in ROS level at 10 uM by DCFH-DA staining based flow cytometry. It counts as functional, cell-based. A general note: Flow cytometry measures light scatter and fluorescence of single cells or particles in a stream.

Data set [3] deals with SH-SY5Y. In words: Induction of apoptosis in glutamic acid induced human SH-SY5Y cells assessed as necrotic cells incubated for 24 hrs by Annexin V-FITC/PI staining based flow cytometry analysis (reference value: 3.64%). Format: functional.
In data set [4] the test system is SH-SY5Y. In words: Induction of apoptosis in glutamic acid induced human SH-SY5Y cells assessed as viable cells incubated for 24 hrs by Annexin V-FITC/PI staining based flow cytometry analysis (reference value: 61.55%). Format: functional.
Data set [5] relates to SH-SY5Y. The data set is described as follows: Induction of apoptosis in human SH-SY5Y cells assessed as late apoptotic cells incubated for 24 hrs by Annexin V-FITC/PI staining based flow cytometry analysis (reference value: 0.04%). Format: toxicity, cell-based.
In data set [6] the test system is SH-SY5Y. In words: Induction of apoptosis in human SH-SY5Y cells assessed as early apoptotic cells incubated for 24 hrs by Annexin V-FITC/PI staining based based flow cytometry analysis (reference value: 0.03%). It counts as toxicity, cell-based.
Data set [7] deals with SH-SY5Y. The data set is described as follows: Cytoprotective activity against glutamic acid induced injury in human SH-SY5Y cells assessed as improvement in cell morphology at 10 uM by immunofluorescence analysis. It counts as functional, cell-based.
Data set [8] concerns SH-SY5Y. The data set is described as follows: Induction of apoptosis in human SH-SY5Y cells assessed as necrotic cells incubated for 24 hrs by Annexin V-FITC/PI staining based flow cytometry analysis (reference value: 0.06%). Format: toxicity, cell-based.
The subject of data set [9] is SH-SY5Y. In words: Induction of apoptosis in glutamic acid induced human SH-SY5Y cells assessed as late apoptotic cells incubated for 24 hrs by Annexin V-FITC/PI staining based flow cytometry analysis (reference value: 0.21%). Format: functional.
The test system of data set [10] is SH-SY5Y. The data set is described as follows: Induction of apoptosis in glutamic acid induced human SH-SY5Y cells assessed as early apoptotic cells incubated for 24 hrs by Annexin V-FITC/PI staining based flow cytometry analysis (reference value: 34.60%). It counts as functional.
Data set [11] is described as follows: Induction of apoptosis in human SH-SY5Y cells assessed as viable cells incubated for 24 hrs by Annexin V-FITC/PI staining based flow cytometry analysis (reference value: 99.87%). It counts as toxicity, cell-based. The note with it: read-out: Activity.

Consider `COc1ccc(OC2=C(C)C(=O)[C@@H]3[C@H](C2=O)[C@H]2C[C@@H]3C(C)=C2[C@@H]2[C@H](CCC(C)=O)C2(C)C)cc1C`, for which the result in the data set on SH-SY5Y [1], in the data set with SH-SY5Y [2] and with SH-SY5Y [7] was Active. Further, the Activity in the data set on SH-SY5Y [3] stood at 4.49%; in the data set with SH-SY5Y [4], 81.11%; in the data set with SH-SY5Y [5], 0.08%; in the data set with SH-SY5Y [6], 0.39%; with SH-SY5Y [8], 3.59%; in the data set with SH-SY5Y [9] it was 0.17%. Further, the Activity in the data set with SH-SY5Y [10] is reported as 14.23%. The viability at 24 h in [11] came out at 96%.

`COc1ccc(OC2=C[C@@H]3C(=O)[C@](C)(C2=O)[C@@]2(C)C([C@@H]4[C@H](CCC(C)=O)C4(C)C)=CC[C@@H]32)cc1C`: in the data set on SH-SY5Y [1], the outcome was Active.

`COc1ccc(OC2=C(C)C(=O)[C@H]3[C@@H](C2=O)[C@@H]2C[C@H]3C(C)=C2[C@@H]2[C@H](CCC(C)=O)C2(C)C)cc1C`: the outcome in the data set on SH-SY5Y [1] was Active.

Regarding `COc1ccc(OC2=C(C)C(=O)[C@@H]3[C@H](C2=O)[C@H]2C[C@@H]3C([C@@H]3[C@H](CCC(C)=O)C3(C)C)=C2C)cc1C`, in the data set with SH-SY5Y [1], the outcome was Active.

Regarding `COc1ccc(OC2=C(C)C(=O)[C@H]3[C@@H](C2=O)[C@@H]2C[C@@]3(C)C([C@@H]3[C@H](CCC(C)=O)C3(C)C)=C2C)cc1C`, the result in the data set with SH-SY5Y [1] was Active.

Regarding `COc1ccc(OC2=C(C)C(=O)[C@H]3[C@@H](C2=O)[C@@H]2C[C@H]3C([C@@H]3[C@H](CCC(C)=O)C3(C)C)=C2C)cc1C`, the outcome in the data set with SH-SY5Y [1] was Active.
